Laboratory results reported in patent publication US10231956B2, “3-(1H-pyrrolo[3,2-C]pyridin-2-YL)-1 H-pyrazolo[4,3-B]pyridines and therapeutic uses thereof” (Samumed, LLC, priority 2015, dated 2019).

Tests used:
[1] = system: primary human fibroblasts derived from IPF patients (LL29 cells); test: Inhibition of fibrotic process: αSMA staining in TGF-β1 treated LL29 fibroblasts; type: cell-based; details: Fibroblast; for EC50: 96 h, TGF-β1 20 ng/mL, 4 days, % cells positive for αSMA
Procedure, shortened: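 LL29 cells at 1,500/well in F12 with 1% FBS, compounds at 1 μM–1.87 nM (11-point, 0.1% DMSO), TGF-β1 20 ng/mL added 1 h later, 4 days at 37 °C. SYTOX-positive cells excluded; % αSMA-positive cells by immunofluorescence imaging, normalized to TGF-β1/DMSO wells, triplicates fitted for EC50; above 10 μM, % inhibition at 10 μM given.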

IL-6 = IL-6 inhibition in LPS-stimulated THP-1 cells (HTRF); type: cell-based; details: Homo sapiens; for EC50: LPS 500 ng/mL, 22 hours, IL6 HTRF

Row | Compound | EC50 (IL-6) [µM] | EC50 [1] [µM] | inhibition at 10 µM ([1]; given for EC50 >10 μM, TGF-β1, αSMA, 10 μM, read-out: percent inhibition at 10 μM) [%] | inhibition at 10 µM (IL-6; given for EC50 >10 μM, LPS, IL6, 10 μM, read-out: percent inhibition at 10 μM) [%]
1 | CC(C)CC(=O)Nc1cncc(-c2ccc3[nH]nc(-c4cc5c(N6CCN(C)CC6)nccc5[nH]4)c3n2)c1 [Compound 226, 3-Methyl-N-(5-(3-(4-(4-methylpiperazin-1-yl)-1H-pyrrolo[3,2-c]pyridin-2-yl)-1H-pyrazolo[4,3-b]pyridin-5-yl)pyridin-3-yl)butanamide] | 3.14 | 0.325 |  | 
2 | CN1CCN(c2nccc3[nH]c(-c4n[nH]c5ccc(-c6cncc(NC(=O)c7ccccc7)c6)nc45)cc23)CC1 [Compound 235, N-(5-(3-(4-(4-Methylpiperazin-1l-yl)-1H-pyrrolo[3,2-c]pyridin-2-yl)-1H-pyrazolo[4,3-b]pyridin-5-yl)pyridin-3-yl)benzamide] | 1 | 2.25 |  | 
3 | CN1CCN(c2nccc3[nH]c(-c4n[nH]c5ccc(-c6cncc(CN7CCCCC7)c6)nc45)cc23)CC1 [Compound 239, 3-(4-(4-methylpiperazin-1-yl)-1H-pyrrolo[3,2-c]pyridin-2-yl)-5-(5-(piperidin-1-ylmethyl)pyridin-3-yl)-1H-pyrazolo[4,3-b]pyridine] | 3.98 | 1.51 |  | 
4 | CN1CCN(c2nccc3[nH]c(-c4n[nH]c5ccc(-c6cncnc6)nc45)cc23)CC1 [Compound 251, 3-(4-(4-Methylpiperazin-1l-yl)-1H-pyrrolo[3,2-c]pyridin-2-yl)-5-(pyrimidin-5-yl)-1H-pyrazolo[4,3-b]pyridine] | 0.287 | 1.4 |  | 
5 | CCNCc1cncc(-c2ccc3[nH]nc(-c4cc5cnccc5[nH]4)c3n2)c1 [Compound 258, N-((5-(3-(1H-Pyrrolo[3,2-c]pyridin-2-yl)-1H-pyrazolo[4,3-b]pyridin-5-yl)pyridin-3-yl)methyl)ethanamine] | 0.462 | > 10 | 22.6 | 
6 | CN(C)Cc1cncc(-c2ccc3[nH]nc(-c4cc5cnccc5[nH]4)c3n2)c1 [Compound 265, 1-(5-(3-(1H-Pyrrolo[3,2-c]pyridin-2-yl)-1H-pyrazolo[4,3-b]pyridin-5-yl)pyridin-3-yl)-N,N-dimethylmethanamine] | 0.866 | 3.12 |  | 
7 | c1cc2[nH]c(-c3n[nH]c4ccc(-c5cncnc5)nc34)cc2cn1 [Compound 279, 5-(Pyrimidin-5-yl)-3-(1H-pyrrolo[3,2-c]pyridin-2-yl)-1H-pyrazolo[4,3-b]pyridine] | 1.11 | 2.57 |  | 
8 | c1csc(-c2nccc3[nH]c(-c4n[nH]c5ccc(-c6ccncc6)nc45)cc23)c1 [Compound 354, 5-(Pyridin-4-yl)-3-(4-(thiophen-2-yl)-1H-pyrrolo[3,2-c]pyridin-2-yl)-1H-pyrazolo[4,3-b]pyridine] | > 10 | 2.72 |  | 43.5

Compounds with a lower EC50 (IL-6), results first:

Row | EC50 (IL-6) [µM] | Compound | EC50 [1] [µM] | inhibition at 10 µM ([1]; given for EC50 >10 μM, TGF-β1, αSMA, 10 μM, read-out: percent inhibition at 10 μM) [%] | inhibition at 10 µM (IL-6; given for EC50 >10 μM, LPS, IL6, 10 μM, read-out: percent inhibition at 10 μM) [%]
9 | 0.108 | Cc1ccncc1-c1ccc2[nH]nc(-c3cc4c(N5CCN(C)CC5)nccc4[nH]3)c2n1 [Compound 229, 3-(4-(4-Methylpiperazin-1l-yl)-1H-pyrrolo[3,2-c]pyridin-2-yl)-5-(4-methylpyridin-3-yl)-1H-pyrazolo[4,3-b]pyridine] | 0.949 |  | 
10 | 0.073 | c1cncc(-c2ccc3[nH]nc(-c4cc5cnccc5[nH]4)c3n2)c1 [Compound 256, 5-(Pyridin-3-yl)-3-(1H-pyrrolo[3,2-c]pyridin-2-yl)-1H-pyrazolo[4,3-b]pyridine] | 0.243 |  | 
11 | 0.092 | FC1(F)CCN(Cc2cncc(-c3ccc4[nH]nc(-c5cc6cnccc6[nH]5)c4n3)c2)C1 [Compound 278, 5-(5-((3,3-Difluoropyrrolidin-1-yl)methyl)pyridin-3-yl)-3-(1H-pyrrolo[3,2-c]pyridin-2-yl)-1H-pyrazolo[4,3-b]pyridine] | 0.068 |  | 
12 | 0.108 | CC(C)CC(=O)Nc1cncc(-c2ccc3[nH]nc(-c4cc5c(-c6cc(F)cc(CNS(C)(=O)=O)c6)nccc5[nH]4)c3n2)c1 [Compound 478, N-(5-(3-(4-(3-Fluoro-5-(methylsulfonamidomethyl)phenyl)-1H-pyrrolo[3,2-c]pyridin-2-yl)-1H-pyrazolo[4,3-b]pyridin-5-yl)pyridin-3-yl)-3-methylbutanamide] | 5.7 |  | 
